# Results from US20160177395A1, “BIOMARKERS FOR THE PREDICTION OF RENAL INJURY” (priority 2007, published 2016).
# Values joined by “and” are separate entries in the source; they are usually repeats but may differ in a detail not shown here. Equal values may be shown once.
# Tests used:
# [1] = tested on: kidney tissues of treated or untreated rats; test: Real-time qRT-PCR of marker transcripts in kidney tissue panel, discovery stage (Table 22); assay type: in vivo, rat; details: rat kidney, listed as Dox
# Experimental: Before RT preparation the RNA was treated with DNA-free (Ambion, cat. No. AM1906) DNase treatment and removal—according to manufacturer protocol. DNase procedure was repeated until no DNA is detected in a PCR reaction using the RNA samples.
# The mixture is then incubated for 5 min at 65° C. and then quickly chilled on ice. Thereafter, 20 μl of 5× SuperscriptII first strand buffer (Invitrogen, Cat. No. Y00146), 9.6 μl 0.1M DTT (Invitrogen, Cat. No. Y00147) and 160 units RNasin (Promega, Cat. No. N251A) are added, and the mixture is incubated for 10 min at 25° C., followed by further incubation at 42° C. for 2 min. […] The resulting cDNA is diluted 1:20 in TE buffer (10 mM Tris pH=8, 1 mM EDTA pH=8).
# cDNA (5 μl), prepared as described above, is used as a template in Real-Time PCR reactions using the SYBR Green I assay (PE Applied Biosystem) with specific primers in 100 nM concentration if not indicated otherwise and UNG Enzyme (Eurogentech or equal) Amplification is effected as follows: 50° C. for 2 min, 95° C. for 10 min, and then 40 cycles of 95° C. for 15 sec, followed by 60° C. for 1 min (if not indicated otherwise). Amplification step is followed by dissociation step. Detection is performed by using the PE Applied Biosystem SDS 7000. The cycle in which the reactions achieved a threshold level (Ct) of fluorescence is registered and is used to calculate the relative transcript quantity in the RT reactions. Non-detected samples are assigned Ct value of 41 and are calculated accordingly. The relative quantity is calculated using the equation Q=efficiencŷ-Ct. The efficiency of the PCR reaction is calculated from a standard curve, created by using serial dilutions of several reverse transcription (RT) reactions. To minimize inherent differences in the RT reaction, the resulting relative quantities are normalized to normalization factor calculated as follows: […]
# The relative quantity (Q) of each housekeeping gene in each sample is calculated as described above. In order to calculate the “relative Q relative to MED” each Q for each HSKP gene is divided by the median quantity of this gene in all panel samples. To finally achieve the normalization factor of each sample the geometric mean of all four “relative Q relative to MED” was calculated. The normalization factor was then used for further calculations.
# The markers of the present invention were tested with regard to their expression in a panel of kidney tissues samples from treated and control rats. Unless otherwise noted, all experimental data relates to the novel polynucleotides and proteins of the present invention, named according to the segment being tested (as expression was tested through RT-PCR as described). Tests were then performed as described in the “Materials and Experimental Procedures” section above.
# The qRT-PCR measurements were normalized according to each samples normalization factor as described in “RT Preparation and Real-Time qRT-PCR Analysis” and further multiplied by a constant factor for ease of viewing.
# [2] = tested on: kidney tissues of treated or untreated rats; test: Real-time qRT-PCR of signature amplicons, validation stage, labeled and un-labeled samples (Table 23); details: for H31883_DB71_seg13 normalized qRT-PCR result / MUSCYCG1R_DB81_seg19-20 normalized qRT-PCR result / W41270_DB81_seg11 normalized qRT-PCR result: labeled sample, one line per animal
# From the text: New primers were designed for part of the transcripts, and new conditions for several qRT-PCR reactions were used, as described below.
# The measurements were normalized in two steps. First—according to the house-keeping-genes normalization factor, and second—each plate was normalized according to ratio of the intensity measurements from samples appearing in it and in the shuffled (normalization) plate (Table 25 provides the plates details and the section “Inter-Plate Normalization” provides details of the normalization process). The normalized values were further scaled by a factor, for ease of viewing.
# RT was prepared and qRT-PCR performed and analyzed as described hereinabove. qRT-PCR was performed for the four genes comprising the signature of the discovery stage described in Table 13. Two amplicons were tested for each gene—one representing the wild-type transcript, and another representing an alternative splice variant. Each amplicon was measured using the labeled samples described in Table 9 herein, as well as the un-labeled samples. Samples from both groups (labeled and un-labeled) were tested in seven 96 well plates as described in Table 25. In order to correct possible run to run variations, the following controls were added: 1. several samples were repeated in all 96 wells plates; 2. control shuffled plate was designed which combined samples from all seven test plates.
# To account for possible differences of qRT-PCR measurements between the different plates due to experimental artifacts, a normalization plate was planned. This plate, designated hereinabove ‘shuffled plate’, contained samples from all other plates. Real Time PCR was performed on this plate using the primers appropriate for all candidates in tables 26 and 27. For each other plate (plates 1-7 above) and each amplicon, the samples appearing also in the shuffled plate were examined—the ratio between the transcript abundance as measured in the plate to the abundance as measured in the shuffled plate was calculated, outliers were manually removed, and the geometric mean of the left ratios was taken as an additional multiplicative normalization factor for the plate and amplicon.
# [3] = day28, individual animals (F and M)
# [4] = day1, female rat kidney, listed as Dox
# [5] = day1, male rat kidney, listed as Dox
# [6] = day28, female rat kidney, listed as Dox
# [7] = day28, male rat kidney, listed as Dox
# [8] = labeled samples, day1, kidney of individual male/female rats, listed as Dox
# [9] = labeled samples, day5, kidney of individual male/female rats, listed as Dox
# [10] = labeled samples, day28, kidney of individual male/female rats, listed as Dox
smiles,measurement,setting,value
COc1cccc2c1C(=O)c1c(O)c3c(c(O)c1C2=O)C[C@@](O)(C(=O)CO)C[C@@H]3O[C@H]1C[C@H](N)[C@H](O)[C@H](C)O1 [Doxorubicin],RATRAB13X_DB71_seg11-13 normalized Real Time PCR,[1]; [3],0.74 and 0.95 and 1.05 and 0.91 and 0.77 and 0.84
same,RNU24174_DB71_seg8 normalized Real Time PCR,[1]; [3],1.99 and 2.06 and 4.39 and 3.5 and 2.2 and 2.91
same,W41270_DB81_seg11 normalized Real Time PCR,[1]; [3],0.84 and 0.44 and 0.77 and 1.64 and 0.54 and 0.5
same,W64472_DB81_seg2 normalized Real Time PCR,[1]; [3],0.8 and 0.69 and 1.73 and 1.71 and 0.83 and 1.15
same,W83813_DB81_seg27 normalized Real Time PCR,[1]; [3],0.58 and 0.61 and 0.63 and 0.51 (2×) and 0.55
same,AA686189_DB71_seg6 normalized Real Time PCR expression,"[1]; day28, individual animals",1.5 and 0.62 and 0.04 and 6.37 and 0.92 and 1.28
same,AI045075_DB71_seg6 normalized Real Time PCR expression,"[1]; day28, individual animals",0.66 and 0.82 and 1.6 and 1.49 and 0.9 and 0.87
same,AI454051_DB71_seg0 normalized Real Time PCR expression,"[1]; day28, individual animals",0.85 and 0.92 and 0.87 and 0.96 and 1.11 and 0.72
same,H31045_DB71_seg5 normalized Real Time PCR expression,"[1]; day28, individual animals",2.16 and 2.58 and 0.51 and 1.57 and 2.33 and 2.12
same,H31883_DB71_seg13 normalized qRT-PCR result,[2]; [4],2.054 and 1.752 and 1.003
same,MUSCYCG1R_DB81_seg19-20 normalized qRT-PCR result,[2]; [4],1.631 and 1.268 and 0.741
same,W41270_DB81_seg11 normalized qRT-PCR result,[2]; [4],1.548 and 1.367 and 0.977
same,H31883_DB71_seg13 normalized qRT-PCR result,[2]; [5],0.956 and 0.936 and 0.964
same,MUSCYCG1R_DB81_seg19-20 normalized qRT-PCR result,[2]; [5],1.257 and 1.622 and 1.454
same,W41270_DB81_seg11 normalized qRT-PCR result,[2]; [5],1.26 and 2.478 and 1.45
same,H31883_DB71_seg13 normalized qRT-PCR result,[2]; [6],0.734 and 0.719 and 0.955
same,MUSCYCG1R_DB81_seg19-20 normalized qRT-PCR result,[2]; [6],0.964 and 0.653 and 0.54
same,W41270_DB81_seg11 normalized qRT-PCR result,[2]; [6],2.157 and 1.462 and 1.023
same,H31883_DB71_seg13 normalized qRT-PCR result,[2]; [7],0.686 and 0.442 and 0.586
same,MUSCYCG1R_DB81_seg19-20 normalized qRT-PCR result,[2]; [7],0.669 and 1.434 and 0.785
same,W41270_DB81_seg11 normalized qRT-PCR result,[2]; [7],1.613 and 3.226 and 1.604
same,H31883_DB71_seg13 normalized qRT-PCR expression (Cyclin-G1 (CCNG1) transcript),[2]; [8],0.993 and 1.283 and 1.41 and 1.46 and 1.116
same,MUSCYCG1R_DB81_seg19-20 normalized qRT-PCR expression,[2]; [8],1.387 and 1.761 and 2.256 and 1.516 and 1.627 and 1.551
same,"W41270_DB81_seg11 normalized qRT-PCR expression (tumor necrosis factor receptor superfamily, member 12a transcript)",[2]; [8],0.824 and 1.286 and 1.43 and 1.148 and 1.501 and 0.935
same,AI045075_DB71_seg6 normalized qRT-PCR expression (Interferon stimulated exonuclease 20 (ISG20) transcript),[2]; [9],1.248 and 1.348 and 1.319 and 1.844
same,H31883_DB71_seg13 normalized qRT-PCR expression (Cyclin-G1 (CCNG1) transcript),[2]; [9],2.129 and 0.905 and 2.586 and 1.227 and 1.377
same,MUSCYCG1R_DB81_seg19-20 normalized qRT-PCR expression,[2]; [9],1.321 and 1.723 and 1.536 and 2.913 and 1.438
same,"W41270_DB81_seg11 normalized qRT-PCR expression (tumor necrosis factor receptor superfamily, member 12a transcript)",[2]; [9],1.017 and 1.053 and 1.551 and 1.791 and 0.851
same,W64472_DB81_seg2 normalized qRT-PCR expression (Interferon stimulated exonuclease 20 (ISG20) transcript),[2]; [9],2.03 and 2.924 and 1.441 and 3.4 and 2.561
same,H31883_DB71_seg13 normalized qRT-PCR expression (Cyclin-G1 (CCNG1) transcript),[2]; [10],1.328 and 1.54 and 1.434 and 1.642 and 1.611 and 1.408
same,MUSCYCG1R_DB81_seg19-20 normalized qRT-PCR expression,[2]; [10],0.985 and 2.342 and 1.437 and 1.991 and 2.105 and 1.779
same,"W41270_DB81_seg11 normalized qRT-PCR expression (tumor necrosis factor receptor superfamily, member 12a transcript)",[2]; [10],1.263 and 0.73 and 2.381 and 1.44 and 0.652 and 0.787
same,"Label: true label (Normal/Toxic), known renal toxic effect","[2]; rat, in vivo",Toxic
